Assay results: the Deep4Chem optical property database
One block for each compound: values may come before it.

Test: solvent given as SMILES

Structure (SMILES): C[Si](C)(C)C#CC(C#C[Si](C)(C)C)=Cc1ccc(C=C(C#C[Si](C)(C)C)C#C[Si](C)(C)C)s1
fluorescence lifetime (in ClC(Cl)Cl): 0.3 ns

Structure (SMILES): N#Cc1nc2c3ccc(-n4c5ccccc5c5ccccc54)cc3c3cc(-n4c5ccccc5c5ccccc54)ccc3c2nc1C#N
fluorescence lifetime (in O=P(c1ccccc1)(c1ccccc1)c1cccc(-c2cc(-n3c4ccccc4c4ccccc43)cc(-n3c4ccccc4c4ccccc43)c2)n1): 29.5 ns

Structure (SMILES): CCCCN1/C(=C\c2c(-c3ccc(N(C)C)cc3)c(=O)c2=O)C=Cc2ccccc21
fluorescence lifetime (in C1CCCCC1): 1.06 ns | fluorescence lifetime (in Cc1ccccc1): 2.99 ns | fluorescence lifetime (in ClCCl): 0.6 ns

Structure (SMILES): c1ccc(-c2nnc(-c3ccc(N4c5ccccc5N(c5ccccc5)c5ccccc54)cc3)n2-c2ccccc2)cc1
fluorescence lifetime (in Cc1ccccc1): 3.9 ns | fluorescence lifetime (in c1cc(-n2c3ccccc3c3ccccc32)cc(-n2c3ccccc3c3ccccc32)c1): 3.5 ns

Structure (SMILES): N#Cc1c(-n2c3ccccc3c3cc(Br)ccc32)c(-n2c3ccccc3c3cc(Br)ccc32)c(C#N)c(-n2c3ccccc3c3cc(Br)ccc32)c1-n1c2ccccc2c2cc(Br)ccc21
fluorescence lifetime (in Cc1ccccc1): 0.4 ns

Structure (SMILES): Nc1ccc2[nH]ncc2c1
fluorescence lifetime (in C1CCCCC1): 4.9 ns | fluorescence lifetime (in CC#N): 4.7 ns | fluorescence lifetime (in CO): 6.4 ns | fluorescence lifetime (in O): 12.5 ns

Structure (SMILES): COc1cc(-c2cc(-c3ccc(C)cc3)nc3c(C#N)c(N4CCCC4)nc(N)c23)cc(OC)c1OC
fluorescence lifetime (in CC#N): 10.7 ns | fluorescence lifetime (in CC(C)=O): 10.4 ns | fluorescence lifetime (in CC(C)O): 10.3 ns | fluorescence lifetime (in CO): 8.46 ns | fluorescence lifetime (in ClC(Cl)Cl): 12.8 ns | fluorescence lifetime (in ClCCl): 12.6 ns | fluorescence lifetime (in c1ccccc1): 12.5 ns

Structure (SMILES): CCCCCCCCCCCCOc1cc2c3c(ccc4c5c(OCCCCCCCCCCCC)cc6c7c(ccc(c1c34)c75)C(=O)N(C1CCCCC1)C6=O)C(=O)N(C1CCCCC1)C2=O
fluorescence lifetime (in ClC(Cl)Cl): 5.4 ns

Structure (SMILES): CN(C)c1ccc(/C=C/C=C/c2ccc(C#N)cc2)cc1
fluorescence lifetime (in C1CCOC1): 0.35 ns | fluorescence lifetime (in CC#N): 0.56 ns | fluorescence lifetime (in CCCCCC): 0.28 ns | fluorescence lifetime (in CCCCOCCCC): 0.28 ns | fluorescence lifetime (in CCO): 0.51 ns | fluorescence lifetime (in CCOCC): 0.32 ns

Structure (SMILES): c1ccc2c(c1)-c1ccccc1C21c2ccccc2-c2c1c1c3ccccc3ccc1c1ccccc21
fluorescence lifetime (in Cc1ccccc1): 3.14 ns

Structure (SMILES): CCC1(CC)c2cc(B(c3c(C)cc(C)cc3C)c3c(C)cc(C)cc3C)ccc2-c2ccc(N(c3ccccc3)c3ccccc3)cc21
fluorescence lifetime (in C1CCOC1): 2.5 ns | fluorescence lifetime (in CC#N): 3.5 ns | fluorescence lifetime (in CC(C)=O): 2.9 ns | fluorescence lifetime (in CCCCCC): 1.6 ns | fluorescence lifetime (in CN(C)C=O): 3.5 ns | fluorescence lifetime (in Cc1ccccc1): 1.8 ns | fluorescence lifetime (in ClC(Cl)Cl): 2.2 ns

Structure (SMILES): Cc1c(-c2nc(-c3ccccc3)nc(-c3ccccc3)n2)ccc(-n2c3ccccc3c3cc4c(cc32)C2c3ccccc3C4c3ccccc32)c1C
fluorescence lifetime (in O=P(c1ccccc1)(c1ccccc1)c1ccccc1Oc1ccccc1P(=O)(c1ccccc1)c1ccccc1): 10 ns

Structure (SMILES): CC1(C)c2ccccc2N(c2ccc(-c3nnc(-c4ccccc4)o3)cc2)c2ccccc21
fluorescence lifetime (in Cc1ccccc1): 7 ns | fluorescence lifetime (in c1ccc(-n2c(-c3c(-n4c5ccccc5c5ccccc54)cccc3-n3c4ccccc4c4ccccc43)nc3ccccc32)cc1): 7.8 ns

Structure (SMILES): CCOc1ccc(/C=C/C=C/C=C/c2ccc([N+](=O)[O-])cc2)cc1
fluorescence lifetime (in Cc1ccccc1): 1.5 ns

More lines, now with the values ahead:

fluorescence lifetime (in C1CCOC1): 14.8 ns | fluorescence lifetime (in CC#N): 7 ns | fluorescence lifetime (in CCCCCC): 24.7 ns
Structure (SMILES): CC1=N/C(=C\c2cc(N(C)C)ccc2C#N)C(=O)N1C

fluorescence lifetime (in C1CCCCC1): 2.4 ns | fluorescence lifetime (in c1ccccc1): 2.5 ns
Structure (SMILES): CN(C)c1ccc2nc(-c3ccc(C(=O)O)cc3)sc2c1

fluorescence lifetime (in C1CCCCC1): 0.84 ns | fluorescence lifetime (in CC#N): 1.07 ns | fluorescence lifetime (in CO): 1.43 ns
Structure (SMILES): Cc1cc(C)c(C)c(-c2ccc3cc(C)c(=O)oc3c2)c1C

fluorescence lifetime (in CCO): 2.29 ns | fluorescence lifetime (in ClC(Cl)Cl): 4.16 ns | fluorescence lifetime (in O): 0.31 ns
Structure (SMILES): CCN(CC)c1ccc2c(c1)oc(=O)c1c(-c3ccccc3C(=O)O)c3ccc(=[N+](CC)CC)cc-3oc12

fluorescence lifetime (in ClC(Cl)Cl): 7.55 ns
Structure (SMILES): CC(C)(C)NC(=O)c1ccc2ccc3cccc4ccc1c2c34

fluorescence lifetime (in CC#N): 23.2 ns | fluorescence lifetime (in CO): 20.7 ns | fluorescence lifetime (in ClCCl): 21.8 ns | fluorescence lifetime (in OCC(O)CO): 19.7 ns
Structure (SMILES): CCCn1c2cccc3oc4cccc5oc6cccc1c6[c+](c45)c32

fluorescence lifetime (in C1CCOC1): 2.9 ns
Structure (SMILES): CCn1c2ccccc2c2cc(C#Cc3cc(C#Cc4ccc5c(c4)c4ccccc4n5CC)nc(N4CCCCC4)n3)ccc21

fluorescence lifetime (in C1CCOC1): 5.4 ns
Structure (SMILES): C[Si](C)(C)c1ccc(-c2ccc(-c3ccc(-c4ccc(-c5ccc([Si](C)(C)C)cc5)cc4)c4nsnc34)cc2)cc1

fluorescence lifetime (in CC#N): 2.48 ns
Structure (SMILES): N#C/C(=C\c1ccc(C#N)cc1)c1nc(-c2ccc(Cl)cc2)c(-c2ccccc2)s1

fluorescence lifetime (in ClC(Cl)Cl): 3.94 ns
Structure (SMILES): CC1=CC(C)=[N+]2C1=C(c1ccc(I)cc1)c1c(C)cc(C)n1[B-]2(OCc1ccccc1)OCc1ccccc1

fluorescence lifetime (in CC#N): 1.94 ns | fluorescence lifetime (in CCCCCC): 5 ns | fluorescence lifetime (in CO): 1.79 ns | fluorescence lifetime (in ClC(Cl)Cl): 2.54 ns
Structure (SMILES): c1ccc2c(c1)cc(-c1cc(-c3nccs3)nc(-c3nccs3)c1)c1ccccc12

fluorescence lifetime (in ClC(Cl)Cl): 3.69 ns
Structure (SMILES): CCc1cc(CC)cc(-n2c3ccccc3c3cc4c(cc32)c2ccccc2n4-c2cc(CC)cc(CC)c2)c1

fluorescence lifetime (in ClC(Cl)Cl): 2.9 ns
Structure (SMILES): CCn1c2ccccc2c2cc3c(cc21)c1ccccc1n3CC

fluorescence lifetime (in C1CCOC1): 2.3 ns
Structure (SMILES): COC(=O)c1ccc(-c2ccc3c(c2)C(=O)c2cc(-c4ccc(C(=O)OC)cc4)ccc2-3)cc1

fluorescence lifetime (in ClC(Cl)Cl): 2.73 ns
Structure (SMILES): N#CC(C#N)=Cc1ccc(-c2ccc(N(c3ccccc3)c3ccccc3)cc2)o1
